US8822509B2, “Pain-relieving compositions and uses therefor” (priority 2006, dated 2014)
Like-named read-outs stand apart in the source and are kept apart here. Marks after values point to notes of the source that are not given here.

Assays:
[1] = system: mechanical allodynia in rats hyporesponsive to morphine; assay: Relief of mechanical allodynia (PWT) in rats hyporesponsive to morphine; assay type: in vivo
[2] = In vitro NO release (Total NOx, modified Griess reagent assay); details: assay of Example 9; for 1 Hour Total NOx: NOx analysis at 1 hour; for 6 Hours Total NOx: NOx analysis at 6 hours
Protocol: Briefly, HEK-MOP cells were seeded at 1×10^5 cells/mL and grown in 10 cm plates to 90% confluence. Four hours prior to experimentation, cell medium was replaced with phenol red-free DMEM. […] Following removal of each supernatant sample, it was replaced with 500 μL of phenol red-free DMEM. Samples were immediately placed on ice until NOx concentrations were quantified.
Sample aliquots (100 μL) were added to 96-well plates in duplicates. Nitrate was first converted to nitrite to determine total NOx concentrations with the addition of 100 μL aliquots of vanadium (III) chloride in 1M HCl (800 mg/100 mL) per well, followed by 100 μL aliquots of modified Griess reagent which converted nitrite to a deep purple azo derivative for spectrophotometric quantification at 560 nm using an Envision Multilabel Plate Reader (PerkinElmer Life Sciences). […] Total NOx and nitrite concentration was determined through inverse prediction against the nitrite standard curve.

[3] = molecular target: T1, μ-opioid receptors (MOP receptors) (Mus musculus, UniProt P42866); assay type: cell-based
T1 construct: expressed in transfected cells; host or cells: HEK293
T1 sequence (P42866 whole entry): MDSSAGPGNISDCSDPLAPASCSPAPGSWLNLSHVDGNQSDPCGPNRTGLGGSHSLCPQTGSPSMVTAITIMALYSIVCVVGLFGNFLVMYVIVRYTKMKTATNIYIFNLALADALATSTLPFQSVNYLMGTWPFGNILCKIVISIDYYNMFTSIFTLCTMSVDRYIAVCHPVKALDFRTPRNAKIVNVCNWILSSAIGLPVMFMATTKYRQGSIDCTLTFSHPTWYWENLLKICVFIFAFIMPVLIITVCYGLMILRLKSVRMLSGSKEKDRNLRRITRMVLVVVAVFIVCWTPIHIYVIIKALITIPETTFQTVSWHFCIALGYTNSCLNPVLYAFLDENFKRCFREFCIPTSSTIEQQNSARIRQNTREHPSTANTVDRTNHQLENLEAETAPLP

[4] = molecular target: T1, μ-opioid receptors (MOP receptors); assay type: cell-based; remark: listed apart in the source
Protocol: Briefly, HEK-MOP cells were pre-incubated with 2% (2-hydroxypropyl)-β-cyclodextrin (βCD) for 1 h at 37° C. to deplete cholesterol from caveloae in the cell membrane. Cells were washed with DMEM and then utilized in the forskolin-stimulated cAMP assay as described above. […] Cells were washed with DMEM and then utilized in the forskolin-stimulated cAMP assay as described above.

[5] = system: hindpaws of control non-diabetic rats; assay: Antinociception by von Frey PWT in control non-diabetic rats; assay type: in vivo, Wistar rats; details: single s.c. bolus; morphine 1.8-21.4 μmol/kg, Compound 1 2-20 fmol/kg
Protocol: (§1) Briefly, baseline PWTs were determined for both hindpaws prior to each antinociceptive testing session in the non-diabetic control group at week 0 as well as in groups of STZ-diabetic rats at 10, 14 and 24 wks.
(§2) The PWT vs time data were normalized by subtracting the pre-dosing baseline PWT values for each individual rat to obtain ΔPWT values as follows: Normalized (Δ)PWT value=Post-treatment PWT value−PWT value prior to treatment.
(§3) ΔPWT versus time curves were then constructed. Trapezoidal integration was used to estimate ΔPWT AUC values for individual rats in the non-diabetic and STZ-diabetic rat treatment groups. ΔPWT AUC versus dose curves were constructed and GraphPad™ Prism was used to estimate the ˜ED50 values.

[6] = system: STZ-diabetic rats; assay: Tolerance development (7-day s.c. infusion, 2-day washout) in STZ-diabetic rats, von Frey PWT; assay type: in vivo
[7] = system: non-diabetic control rats; assay: Tolerance development (7-day continuous s.c. infusion, 2-day washout) in non-diabetic control rats, von Frey PWT; assay type: in vivo
[8] = system: STZ-diabetic rats; assay: Behavioural side-effects in STZ-diabetic rats; assay type: in vivo; details: Compound 1 800 pmol/kg s.c.; morphine 21 μmol/kg
[9] = system: tactile (mechanical) allodynia in hindpaws of STZ-diabetic rats; assay: Anti-allodynia by von Frey paw withdrawal thresholds (PWT) in STZ-diabetic rats; assay type: in vivo, Wistar rats
Protocol: Following this, the jugular cannula was withdrawn, the vein tied off, and the incision sutured. Following surgery, rats received antibiotic prophylaxis in the form of topical dusting powder over the sutured incisions, as well as a subcutaneous injection of benzylpenicillin (60 mg). Rats were placed in individual cages, kept warm and monitored closely during the surgical recovery period. Rats were classified as diabetic if on day 10 post-STZ administration, their daily water intake was ≧100 mL and their corresponding blood glucose levels (BGLs) were ≧15 mM.
Calibrated von Frey filaments were used to document the time course for the development and maintenance of tactile allodynia (defining symptom of PDN).
as §1, §2, §3

[10] = drug-naïve non-diabetic rats, Compound 1 8 fmol/kg, morphine 2.8 mmol/kg (so in the source) s.c. bolus
[11] = non-diabetic rats, second s.c. bolus after 7-day infusion and 2-day washout
[12] = week 10 post-STZ, morphine 2.8 μmol/kg s.c.

Row | Structure (SMILES) | 1 Hour Total NOx [2] | 6 Hours Total NOx [2] | % of forskolin stimulated cyclic AMP response ([4]; Conc 10^−3 M) | % of forskolin stimulated cyclic AMP response ([4]; Conc 10^−4 M) | % of forskolin stimulated cyclic AMP response ([4]; Conc 10^−5 M) | % of forskolin stimulated cyclic AMP response ([4]; Conc 10^−6 M) | % of forskolin stimulated cyclic AMP response ([4]; Conc 10^−7 M) | % of forskolin stimulated cyclic AMP response ([4]; Conc 10^−8 M) | % of forskolin stimulated cyclic AMP response ([4]; Conc 10^−9 M) | % of forskolin stimulated cyclic AMP response ([4]; Conc 10^−11 M) | % of forskolin stimulated cyclic AMP response ([4]; Conc 10^−13 M) | % of forskolin stimulated cyclic AMP response ([4]; Conc 10^−14 M) | % of forskolin stimulated cyclic AMP response ([4]; Conc 10^−15 M) | % of forskolin stimulated cyclic AMP response ([4]; Conc 10^−16 M) | % of forskolin stimulated cyclic AMP response ([4]; Conc 10^−17 M) | % of forskolin stimulated cyclic AMP response ([4]; Conc 10^−18 M) | % of forskolin stimulated cyclic AMP response ([3]; Conc 10^−10 M) | % of forskolin stimulated cyclic AMP response ([3]; Conc 10^−12 M) | further results
1 | O=C(O)CCCCO[N+](=O)[O-] [Compound 33, 5-nitratopentanoic acid] | 13.14 µM | 67.69 µM |  |  |  |  |  |  |  |  |  |  |  |  |  |  |  |  | relief of mechanical allodynia ([1]; Compound 33 80 nmol/kg s.c. bolus): insignificant relief; relief of mechanical allodynia ([1]; Compound 33 120, 800 and 1200 nmol/kg s.c. bolus): significant relief of mechanical allodynia; duration of anti-allodynia ([1]; Compound 33 s.c. bolus): 2 to 3 h; time of peak anti-allodynia post-dosing ([1]; Compound 33 s.c. bolus): 0.75 to 1 h; inhibition of forskolin-stimulated cyclic AMP formation ([3]; μm to mm range (so in the source)): dose dependent inhibition
2 | O=C1CCc2c1no[n+]2[O-] [Compound 16] | 1.08 µM | 1.19 µM | 18.9% | 44.3% | 105.2% | 83.5% | 119.9% | 62.2% | 125.4% | 67.1% | 98.8% | 106.3% | 97.7% | 108.3% | 100.4% | 62.4^a % | 101.3% | 59.3% | 
3 | Cc1c(C(=O)O)no[n+]1[O-] [Compound 6] | 0.31 µM | 0.53 µM | 8.1% | 115.0% | 138.7% | 109.7% | 110.5% | 111.2% | 88.2% | 88.0% | 128.0% | 98.2% | 79.0^a % | 149.0% | 83.9% | 60.4% | 61.5% | 91.1% | 
4 | O=C(c1no[n+]([O-])c1-c1ccccc1)C(F)(F)F [Compound 22] | 1.63 µM | 2.52 µM | 0.3% | 18.2% | 77.9% | 87.5% | 68.4% | 82.1% | 65.2% | 59.2% | 70.5% | 104.6% | 89.0% | 73.2% | 59.4^b % | 47.0% | 66.1% | 62.4% | 
5 | CN1CC[C@]23c4c5ccc(O)c4O[C@H]2[C@@H](O)C=C[C@H]3[C@H]1C5 [morphine, reference compound] |  |  |  |  |  |  |  |  |  |  |  |  |  |  |  |  |  |  | antinociception in the hindpaws of control non-diabetic rats [5]: dose-dependent antinociception; tolerance after 7-day s.c. infusion ([6]; STZ-diabetic rats): antinociceptive tolerance developed; anti-allodynia after second bolus (tolerance status) ([6]; STZ-diabetic rats, after 2-day washout, morphine 10.5 μmol/kg, Compound 1 800 pmol/kg): insignificant anti-allodynia; time of peak anti-allodynia post-dosing ([6]; naïve STZ-diabetic rats, first s.c. bolus): 1 h; mean (±SEM) peak PWT ([6]; naïve STZ-diabetic rats, Compound 1 800 pmol/kg, morphine 10.4 μmol/kg s.c. bolus): 10.7 (±0.3) g; time of peak antinociception post-dosing ([7]; drug-naïve non-diabetic rats, first s.c. bolus): 1 h; mean (±SEM) peak PWT [7, 10]: 16.0 (±0.4) g; mean (±SEM) peak ΔPWT [7, 10]: 4.4 (±0.4) g; tolerance after 7-day continuous s.c. infusion ([7]; non-diabetic rats): antinociceptive tolerance developed; antinociception after second bolus, naïve vs "tolerant" rats ([7]; non-diabetic rats, after 2-day washout): tolerant to the antinociceptive effects of morphine; mean (±SEM) peak PWT [7, 11]: 12 (±0.3) g; mean (±SEM) peak ΔPWT [7, 11]: 0.5 (±0.3) g; behavioural side-effects at highest dose [8]: staring and sedation; time of peak effect post-dosing ([9]; morphine 1.8-21.4 μmol/kg s.c. (FIG. 2)): 30 to 60 min; anti-allodynia in the hindpaws of STZ-diabetic rats ([9]; single s.c. bolus at 10, 14, 24 wks post-STZ): dose-dependent anti-allodynia; mean (±SEM) PWT at time of peak response [9, 12]: 10.7 ± 0.6 g; reversal of mechanical allodynia at time of peak response [9, 12]: fully reversed mechanical allodynia; anti-allodynic potency ([9]; week 14 post-STZ, morphine 2.8 μmol/kg s.c.): significantly reduced; relief of mechanical allodynia at time of peak response ([9]; week 14 post-STZ, morphine 10.5 μmol/kg s.c.): completely relieved mechanical allodynia; anti-allodynic potency ([9]; week 24 post-STZ, morphine 10.5 and 21.4 μmol/kg s.c.): markedly reduced
